Legend:
[1] = test system: H2-RSETA mRNA (H10 and H19 in tandem in the 5′ UTR); experiment: Wheat germ in vitro translation of H2-RSETA mRNA; format: biochemical; conditions: 0, 40 or 80 μM H33258, wheat germ extract
Procedure: (§1) FIG. 10. is a histogram summarizing SDS-PAGE densitometry data from in vitro translation experiments. RNA transcripts containing 0 (RSETA) or 2 copies of an H33258 aptamer (H2-RSETA) were translated in a wheat germ extract in the presence of ^35S-methionine and 0, 40 or 80 μM H33258. Protein products were subjected to SDS-PAGE and quantitated by densitometry. For each transcript, translation in the absence of drug was set at 100%.
(§2) In vitro transcription reactions contained 5 μg pRSETA (or RSET derivative), 0.5 mM m^7G(5′)G, 0.5 mM ATP, CTP, UTP, 0.05 mM GTP, 10 mM DTT and 40 U T7 RNA polymerase in 50 μl of a solution of 40 mM Tris-HCl pH 7.5, 6 mM MgCl2, 2 mM spermidine, 10 mM NaCl. Following incubation for 1 hour at 37° C., RNA was purified by phenol:chloroform extraction, ethanol precipitation and resuspended in 30 μl H2O. Translation reactions were carried out in 10 μl containing 5 μl wheat germ extract, 0.8 μl 1 mM amino acid mixture (minus methionine), 2 μl of RNA transcript (described above), 0.5 μl [^35S] methionine (1200 Ci/mmole) and 0-80 μM drug. Reactions were incubated at 25{square root} C. for 15 minutes and terminated by addition of 2X sample loading buffer. Translation products were separated by electrophoresis on an 18% polyacrylamide gel, visualized by autoradiography, and quantitated by densitometry.

[2] = cited from earlier work; for Cell permeability: known
[3] = known; cited from earlier work
[4] = test system: parental expression vector SVβ Gal in CHO cells; experiment: β-galactosidase reporter expression in transfected CHO cells, parental SVβ Gal; format: cell-based; conditions: 24 hours, 0, 5 or 10 μM H33342, data not shown
Procedure: (§3) FIG. 11 is a histogram summarizing data from in vivo expression experiments. H33258 aptamers H10 and H19 were cloned in tandem into the 5′ UTR of a β-galactosidase reporter gene (SVβ gal; Promega) to generate SVH2β gal. CHO cells were cotransfected with 1 μg SVβ gal or SVH2β gal and 1 μg of a luciferase expression vector (pGL3). Transfected cells were grown in the presence of […]. Twenty-four hours after transfection, cell extracts were prepared, and β-galactosidase and luciferase activities were determined.
(§4) To test whether this small molecule-aptamer interaction could be used to control gene expression in vivo, one copy of H10 and H19 were inserted into the 5′ UTR of a mammalian β-galactosidase expression plasmid SVβ Gal (Promega), generating the construct SVH2β gal. CHO cells were cotransfected with SVH2β Gal or as a control the parental vector, SVβ Gal, and a luciferase reporter gene to provide an internal control. Following transfection, cells were grown for 24 hours in the presence of 0, 5 or 10 μM H33342 and analyzed for β-galactosidase and luciferase activities.
(§5) H33258 aptamers, H10 and H19, were cloned in tandem into the 5′ UTR of a β-galactosidase reporter gene (SVβ gal, Promega) to generate SVH2β gal. […] 24 hours post-transfection cell extracts were prepared and β-galactosidase and luciferase activities were determined.

[5] = test system: luciferase reporter (pGL3) in CHO cells; experiment: Luciferase internal control reporter in transfected CHO cells; format: cell-based; conditions: 24 hours, 0, 5 or 10 μM H33342
Procedure: as §3, §4, §5

[6] = test system: SVH2β Gal (β-galactosidase reporter with H10 and H19 in the 5′ UTR) in CHO cells; experiment: β-galactosidase reporter expression in transfected CHO cells, SVH2β gal; format: cell-based; conditions: 24 hours, 0, 5 or 10 μM H33342, dose-dependent
Procedure: as §3, §4, §5

control RSETA mRNA = experiment: Wheat germ in vitro translation of control RSETA mRNA; format: biochemical; conditions: all concentrations tested, wheat germ extract
Procedure: (§6) FIG. 4. is a histogram showing percent translation of mRNA in a wheat germ in vitro translation system containing 0 (RSETA) or 3 copies of the tob aptamer cloned into the 5′ UTR of RSETA (tob3-RSETA) and 0, 30 or 60 μM tobramycin or kanamycin A. Protein products were analyzed by SDS-PAGE and quantitated by densitometry. For each transcript, translation in the absence of drug was set at 100%.
as §1
A test mRNA was constructed containing three copies of the tob aptamer inserted in the 5′ UTR of RSETA (tob3-RSETA). […]
In vitro transcription reactions contained 5 μg pRSETA (or RSET derivative), 0.5 mM m^7G(5′)G, 0.5 mM ATP, CTP, UTP, 0.05 mM GTP, 10 mM DTT and 40 U T7 RNA polymerase in 50 μl of a solution of 40 mM Tris-HCl pH 7.5, 6 mM MgCl2, 2 mM spermidine, 10 mM NaCl. […] Translation products were separated by electrophoresis on an 18% polyacrylamide gel, visualized by autoradiography, and quantitated by densitometry.

[7] = test system: tob3-RSETA mRNA (three copies of the tob aptamer in the 5′ UTR); experiment: Wheat germ in vitro translation of tob3-RSETA mRNA; format: biochemical; conditions: 0, 30 or 60 μM drug, wheat germ extract
Procedure: as §6
A test mRNA was constructed containing three copies of the tob aptamer inserted in the 5′ UTR of RSETA (tob3-RSETA). In vitro translation reactions were performed in the presence of 0, 30 or 60 μM tobramycin or kanamycin A.
as §2, with “Reactions were incubated at 25{square root} C. for 15 minutes and terminated by addition of 2X sample loading buffer.” left out

[8] = test system: E. coli BL-21 cells expressing RSETA, kan or tob aptamers; experiment: Growth of E. coli expressing antibiotic aptamers in antibiotic-containing medium; format: cell-based; conditions: 10 mM antibiotic, liquid culture; for Growth of bl-kan1 (kanamycin aptamer) in the presence of antibiotic: strain bl-kan1; for Growth of bl-tob1 (tobramycin aptamer) in the presence of antibiotic: strain bl-tob1
Procedure: FIGS. 3A-3E are growth curves of E. coli expressing antibiotic aptamers. Overnight cultures of BL-21 cells transformed with plasmids expressing RSETA, tob1, tob3, kan1 or kan3 were diluted 100-fold into medium containing the indicated concentration of aminoglycoside antibiotic. Optical density (660 nm) was measured at fixed intervals over 8 hours of growth at 37° C.
As an initial test for the ability of these aptamers to function in vivo, we asked whether following expression in E. coli the aptamer would sequester the cognate antibiotic thereby conferring a specific drug-resistant phenotype. Toward this end, one or three copies of the kanamycin A (kan) or the tobramycin (tob) aptamer were cloned into the T7 RNA polymerase-driven expression vector PRSETA (Invitrogen), and transformed into a bacterial strain containing an IPTG-inducible T7 RNA polymerase. Bacterial strains were grown in liquid culture overnight and then diluted into antibiotic-containing medium. In the absence of drug, bacterial strains expressing no aptamer (bl-RSETA), the kanamycin aptamer (bl-kan1), or the tobramycin aptamer (bl-tob1) grew similarly (FIG. 3A). […] The partial-resistance of bl-kan1 to tobramycin (our unpublished data).

Compound	In vitro translation of H2-RSETA mRNA [1]	Cell permeability [2]	Toxicity [3]	Expression of parental expression vector SVβ Gal [4]	Cell permeability relative to H33258 [2]	Expression of the luciferase reporter [5]	Reduction of β-galactosidase activity from SVH2β Gal [6]	In vitro translation of control RSETA mRNA (control RSETA mRNA)	In vitro translation of tob3-RSETA mRNA [7]	Growth of bl-RSETA (no aptamer) in the presence of antibiotic ([8]; strain bl-RSETA)	Growth of bl-kan1 (kanamycin aptamer) in the presence of antibiotic [8]	Growth of bl-tob1 (tobramycin aptamer) in the presence of antibiotic [8]
CN1CCN(c2ccc3[nH]c(-c4ccc5[nH]c(-c6ccc(O)cc6)nc5c4)nc3c2)CC1 [H33258]	inhibited in vitro translation of H2-RSETA	cell-permeable	relatively non-toxic	–	–	–	–	–	–	–	–	–
CCOc1ccc(-c2nc3ccc(-c4nc5ccc(N6CCN(C)CC6)cc5[nH]4)cc3[nH]2)cc1 [H33342]	–	cell-permeable	relatively non-toxic	not inhibited	approximately ten-fold more cell-permeable	not inhibited	greater than 90%	–	–	–	–	–
NC[C@H]1O[C@H](O[C@H]2[C@H](O)[C@@H](O[C@H]3O[C@H](CO)[C@@H](O)[C@H](N)[C@H]3O)[C@H](N)C[C@@H]2N)[C@H](O)[C@@H](O)[C@@H]1O [kanamycin A]	–	–	–	–	–	–	–	unaffected	not inhibited	neglible	grew to saturation	neglible
NC[C@H]1O[C@H](O[C@H]2[C@H](O)[C@@H](O[C@H]3O[C@H](CO)[C@@H](O)[C@H](N)[C@H]3O)[C@H](N)C[C@@H]2N)[C@H](N)C[C@@H]1O [tobramycin]	–	–	–	–	–	–	–	unaffected	inhibited in vitro translation of the tob3-RSETA mRNA in a dose-dependent fashion	–	grew to a sub-saturating level	grew to saturation

From patent US20020006661A1, “Controlling gene expression in living cells” (University of Massachusetts, a Massachusetts corporation, priority 1998, published 2002)
